Data published in patent publication US5466716A, “Liposomal trimethylsphingosine” (The Biomembrane Institute, priority 1994, dated 1995).
“Also recorded” adds a separate entry of the source. Like-named read-outs stand apart in the source and are kept apart here.

Legend:
[1] = system: GMP-140; assay: GMP-140 expression on platelets (flow cytometry, mAb AC1.2); type: cell-based, human
Method: FIGS. 11A and 11B depict results of representative experiments assessing the percentage of platelets capable of binding an anti-GMP-140 antibody following exposure to various agents. The percentage binding activity was determined in a flow cytometer. SPN is sphingosine; H-7 is 1-(5-isoquinolinylsulfonyl)-2-methylpiperazine; Cal is calphostin-C; TMS is trimethylsphingosine; and DMS is dimethylsphingosine.
GMP-140 expression was determined by (i) flow cytometry with mAb AC1.2, which is directed to GMP-140 and obtained from Dr. Furie (Tufts Univ. Sch. Med., Boston, Mass.) and (ii) adhesion of HL60 cells on platelet-coated solid phase.
A suspension of platelets (1×10^8 /ml) in Tyrode's buffer was preincubated with inhibitor at pH 7.2, 37° C., for 5 minutes, then supplemented with activator, either thrombin (final concentration 1 U/ml) or phorbol 12-myristate 13-acetate (PMA (final concentration 10^-7 M), and the mixture was incubated at 37° C. for 10 minutes. Platelets were fixed with an equal volume of 2% (w/v) paraformaldehyde in PBS and washed 2 times with PBS containing 1% (w/v) BSA.
The paraformaldehyde-fixed platelets were incubated with 50 μl of mAb AC1.2 (2.5 μg/ml) at room temperature for 30 minutes. Platelets were washed 2 times with PBS containing 1% (w/v) BSA, supplemented with 50 μl of fluorescein isothiocyanate-labeled goat anti-mouse Ig (purchased from Tago Co., Burlingame, Calif.), incubated at room temperature for 30 minutes and again washed 2 times with PBS containing 1% (w/v) BSA. As a negative control, paraformaldehyde-fixed platelets were incubated with mouse IgG instead of mAb AC1.2 and treated as described above.
The platelets were analyzed in an Epics flow cytometer (Coulter Corp.) with suitable gating. To calculate the inhibitory effect of various reagents, the mean fluorescence intensity of resting platelets (obtained on incubation of platelets without activator) was subtracted from the value for the activated platelet sample.

[2] = system: neutrophils; assay: neutrophil transmigration through HUVEC monolayer; type: cell-based, human
Method: A characteristic of neutrophils is the ability to adhere to activiated EC's and to migrate through the EC monolayer into the vascular or extravascular matrix. The effect of TMS on neutrophil interactions with EC's and their subsequent trans-endothelial migration thereof can be monitored in vitro using human umbilical endothelial cells (HUVEC's) (Luscinskas et al., J. Imm., 146, 1617, 1991). Neutrophils are added to a HUVEC monolayer and neutrophil-HUVEC interactions are assessed microscopically following fixation, embedding and staining of monolayer sections.
Cross-sections (2 μm) of the collagen bed with HUVEC's and neutrophils
were observed using a Zeiss light microscope with KPL W10 ahd Ph2 Neoflua
16 lenses. The number of cells transmigrated were counted for each view.
HUVEC's and culture media were purchased from Cell Systems (Kirkland, Wash.). The cells were maintained and cultured as described in Luscinskas et al., supra, with some modifications. Briefly, HUVEC's were maintained in 10 ml tissue culture flasks on a collagen type I bed obtained from rat tail (Upstate Biotechnology Inc, Lake Placid, N.Y.) with CS-complete medium, CS-growth factor and CS-AF-1 (Cell Systems). Cells became confluent within 2 to 4 days when incubated in 5% CO2 at 37° C.
For the transmigration assay, thick gels were formed in 24-well tissue culture plates. Preparation of the gel solution was carried out at 4° C. Eight parts of collagen solution (Vitrogen 100, from bovine tendon which contained less than 5 ng/ml endotoxin; Celtrix Labs, Palo Alto, Calif.), one part of 10×RPMI and one part of alkaline solution (2.2 g NaHCO3 in 100 ml of 0.05N NaOH and 200 mM HEPES) were mixed gently and distributed at 0.7 ml/well. The solution was left for 4 hr at 37° C. to eliminate air bubbles, then allowed to gel in a 37° C. oven for 3 hr. The wells were washed with 1.0 ml of CS-complete medium with attachment factors at least 4 times and every 3 to 6 hr during further incubation at 37° C. in 5% CO2.
HUVEC's at a passage level of less than 3 were detached from 10 ml tissue culture flasks with 3 ml of Trypsin-EDTA at 37° C. for 30 to 60 sec. Immediately, 3 ml of M199 with 20% heat-inactivated FCS was added. Cells were collected by centrifugation. The pellet was resuspended in 10 ml of CS-complete medium with attachment factors. Homogeneous cell suspensions were plated at 0.7 ml to each well and the plates were incubated for 3 hr at 37° C. The supernatant, which contains dead cells, was aspirated carefully and fresh complete medium with attachment factors was added.
The HUVEC monolayer in 24-well tissue culture plates were washed with M199 without FCS, then incubated with 1 ml/well of IL-1β (Boehringer Mannheim Biochemical Products, Indianapolis, Ind.) dissolved in M199 with 1% heat-inactivated FCS (HIFCS) at 10 U/ml. The plates were incubated at 37° C., 5% CO2 for 4 hr then washed gently with 1 ml of M199. The purified neutrophil suspension (1.5×10^6 cells/ml) in M199 containing 1% HIFCS was pre-incubated with TMS, or other effectors, for 10 min at 37° C. After aspirating the media in the well, 0.5 ml of the neutrophil suspension were added onto the HUVEC monolayer. The tissue culture plate was incubated for 90 min at 37° C.
The culture was terminated by gently aspirating the cell suspension, adding 1 ml of 10% formaldehyde in PBS and stored at 4° C. overnight for fixation. The edge of the collagen bed was cut with a small spatula along the wall 2 hr before removal from the well. The collagen bed, which has HUVEC's on the surface and transmigrated neutrophils within was embedded in paraffin, sectioned and followed by staining with hematoxylin-eosin for microscopic examination.

`CCCCCCCCCCCCC/C=C/[C@@H](O)[C@H](CO)N(C)C` [DMS, (4E)-N,N-dimethyl-D-erythro-sphingosine] was tested, and the “inhibition of GMP-140 expression” value ([1]; PMA-induced, 10-20 μM) was “strongly inhibited GMP-140 expression” and the “inhibition of GMP-140 expression” value ([1]; thrombin-induced, FIG. 11A) was “strongly inhibited thrombin-induced GMP-140 expression”.
With `CCCCCCCCCCCCC/C=C/[C@@H](O)[C@@H](N)CO` [SPN, sphingosine] the activity at 15 µM ([2]; Homo sapiens, Neutrophil, 1.5 h, read-out: Number of Cells/View) was 36 ± 12%, the “inhibition of GMP-140 expression” value ([1]; PMA-induced, FIG. 11B) was “Neither SPN nor H-7 showed inhibition” and the “inhibition of GMP-140 expression” value ([1]; thrombin-induced, FIG. 11A) was “no inhibition”.
`CCCCCCCCCCCCC/C=C/[C@@H](O)[C@H](CO)[N+](C)(C)C` [TMS, N,N,N-trimethylsphingosine] was tested, and the “inhibition of neutrophil migration” value ([2]; 8 μM pre-treatment) was “inhibited strongly”, the “number of cells migrating through the EC monolayer” value ([2]; 15 μM) was “greatly reduces the number of cells migrating” and the “inhibition of neutrophil migration” value ([2]; 25 μM pre-treatment) was “completely inhibited”. The “neutrophil migration (transmigration)” value ([2]; Example 10) was “affected neutrophil migration”, the activity at 4 µM ([2]; Homo sapiens, Neutrophil, 1.5 h, Table II, 4 μM, control 100, read-out: neutrophil transmigration (number of cells transmigrated)) was 96 ± 18% and the activity at 8 µM ([2]; Homo sapiens, Neutrophil, 1.5 h, Table II, 8 μM, control 100, read-out: neutrophil transmigration (number of cells transmigrated)) was 66 ± 28%. It also gave an activity at 15 µM ([2]; Homo sapiens, Neutrophil, 1.5 h, Table II, 15 μM, control 100, read-out: neutrophil transmigration (number of cells transmigrated)) of 41 ± 8.7%, an activity at 25 µM ([2]; Homo sapiens, Neutrophil, 1.5 h, Table II, 25 μM, control 100, read-out: neutrophil transmigration (number of cells transmigrated)) of 6.8 ± 4.1% and an activity at 45 µM ([2]; Homo sapiens, Neutrophil, 1.5 h, Table II, 45 μM, control 100, read-out: neutrophil transmigration (number of cells transmigrated)) of 1.2 ± 1.2%. The activity at 15 µM ([2]; Homo sapiens, Neutrophil, 1.5 h, Table III, 15 μM, control 100, read-out: Number of Cells/View) was 39 ± 17%, the “inhibition of GMP-140 expression” value ([1]; PMA-induced, 10-20 μM) was “strongly inhibited GMP-140 expression” and the GMP-140 expression ([1]; platelets preincubated with TMS) was “inhibits GMP-140 expression; also recorded: down-regulated or blocked”. For the same compound, the “inhibition of GMP-140 expression” value ([1]; thrombin-induced, 10-20 μM) was “strongly inhibited GMP-140 expression”.
In the case of Calphostin C, the “Number of Cells/View” value ([2]; Table III, 5 μM, control 100, 90 min) is reported as 19 ± 8.9 and the “inhibition of GMP-140 expression” value ([1]; thrombin-induced, 10-20 μM) is reported as “weak inhibition”.
